Laboratory results reported in article PMC10135378, “Synthesis of Novel N-Heterocyclic Carbene-Ruthenium (II) Complexes, “Precious” Tools with Antibacterial, Anticancer and Antioxidant Properties” (Antibiotics, 2023).

Columns and labels:
MDA-MB-231 cells = assay: MTT assay, anticancer activity on MDA-MB-231 cells; assay type: cell-based, human; conditions: MTT, 72 h exposure, 0.1-100 µM
Experimental: (§1) The anticancer activity of all the synthesized Ru-NHC complexes (RANHC I-VI) was studied in two human breast cancer cell lines, namely the estrogen receptor positive (ER+) MCF-7 cells and the triple negative MDA-MB-231 cells (ER-, PR-, and HER-2/Neu not overexpressed), and neuroblastoma cells, i.e., SH-SY5Y. First, the cells were exposed for 72 h at different concentrations of the studied complexes (from 0.1 to 100 µM) and then their viability was checked by MTT assay.
(§2) The adopted cells (breast cancer MCF-7 and MDA-MB-231 and human mammary epithelial MCF-10A cells) were purchased from American Type Culture Collection (ATCC, Manassas, VA, USA) and cultured as indicated. The mouse embryonic fibroblast BALB/3T3 and neuroblastoma SH-SY5Y were also obtained from American Type Culture Collection (ATCC, Manassas, VA, USA) and cultured in DMEM high glucose supplemented with 100 U mL^−1 penicillin/streptomycin and 10% bovine calf serum (BCS) or 10% fetal bovine serum (FBS), respectively.
(§3) MTT assay (Sigma Aldrich (St. Louis, MO, USA)) was used for the in vitro anticancer activity evaluation, as previously reported. The Ru-NHC complexes were employed at different concentrations (0.1–1–10–25–50–100 μM) for 72 h. The IC50 values were calculated from the percent (%) of control using GraphPad Prism 9 (GraphPad Software, La Jolla, CA, USA).

MCF-7 cells = assay: MTT assay, anticancer activity on MCF-7 cells; assay type: cell-based, human; conditions: 72 h exposure, 0.1-100 µM
Experimental: as §1, §2, §3

MCF-10A cells = assay: MTT assay, non-tumoral MCF-10A cells; assay type: cell-based, human; conditions: 72 h exposure
Text: (§4) Additionally, we investigated the selectivity of all the synthesized Ru-NHC complexes on the cancer cells by studying their capability to interfere with the growth of two non-tumoral cells, namely the MCF-10A and BALB/3T3 cells.
as §2, §3

SH-SY5Y cells = assay: MTT assay, anticancer activity on SH-SY5Y neuroblastoma cells; assay type: cell-based; conditions: 72 h exposure, 0.1-100 µM
Experimental: as §1, §2, §3

BALB/3T3 cells = assay: MTT assay, non-tumoral BALB/3T3 fibroblasts; assay type: cell-based; conditions: 72 h exposure, non-tumoral mouse embryonic fibroblasts
Text: as §4, §2, §3

[1] = test system: Enterococcus faecalis (ATCC 19433); assay: MIC/MBC broth dilution, E. faecalis; assay type: cell-based; conditions: control for strain sensitivity
Experimental: (§5) One Gram-negative (Escherichia coli (ATCC® 25922TM)) and two Gram-positive bacterial strains (Enterococcus faecalis (ATCC® 19433TM) and Staphylococcus aureus (ATCC® 23235TM)] were used for MIC and MBC values determination, according to CLSI guidelines. MIC represents the lowest concentration of compound inhibiting the visible microbial growth and expressed as μg/mL; MBC is the lowest concentration able to kill the bacteria. Both determinations were performed by the broth dilution method. Bacteria were grown overnight in LB medium (2%), then diluted to a density of […] colony forming units (CFUs) per mL, plated in sterile 96-well microplates, obtaining about 10^5 cells/ well. Increasing concentrations of the Ru-NHC complexes (1, 10, 25, 50, 70, 100 µg/mL) were used. After incubation at 37 °C for 18 h (overnight), bacterial growth was checked at a wavelength of 600 nm using a Multiskan spectrophotometer (model Multiskan Ex Microplate; Thermo Scientific, Nyon, Switzerland) and MIC or MBC values were determined, comparing cell density with a positive control (bacterial cells grown in LB medium were added with only the vehicle, DMSO). Each experiment was carried out five times, in triplicate. Ampicillin (Sigma Aldrich A9393) was used as the control for strain sensitivity.

[2] = test system: Staphylococcus aureus (ATCC 23235); assay: MIC/MBC broth dilution, S. aureus; assay type: cell-based; conditions: control for strain sensitivity
Experimental: as §5

[3] = test system: Escherichia coli (ATCC 25922); assay: MIC/MBC broth dilution, E. coli; assay type: cell-based; conditions: control for strain sensitivity
Experimental: as §5

[4] = ABTS radical scavenging assay; conditions: 5 min, room temperature, 730 nm
Text: To further analyze the Ru-NHC complexes antiradical potential, we examined their capability to interfere with the ABTS radical cation, a well-known protonated radical with a characteristic maximal absorbance at 730 nm, which diminishes with the scavenging of the radical proton. The assay measures radical scavenging by the electron donation. The outcomes in terms of ABTS% scavenging activity are reported in Figure 7 and IC50 values of Ru-NHC complexes, together with the standard Trolox, on ABTS radical are summarized in Table 3 and Table S3.
The radical scavenging properties of the Ru-NHC complexes on a 2,2′-azino-bis(3-ethylbenzothiazoline-6-sulfonate) radical cation (ABTS^•+) were calculated as described by Fazio et al., with few adjustments. Briefly, 2 mM ABTS and 70 mM potassium persulfate water solutions were mixed and incubated to obtain ABTS^•+ radical stock solution (16 h, room temperature, in the dark). ABTS solution was diluted in ethanol to obtain an absorbance of 0.70 ± 0.02 at 730 nm, prior to use. Then, 2 μL of each Ru-NHC complex at different concentrations, properly dissolved in DMSO, were mixed with 198 μL of the ABTS^•+ solution in a 48-well plate obtaining the following concentrations: 0.1, 1, 10, 50, and 100 µg/mL. The solutions were vigorously shaken and incubated (5 min, room temperature, in the dark). The ABTS scavenging activity was determined at 730 nm, using a microplate reader. The control was prepared mixing 2 μL of DMSO with 198 μL of the ABTS^•+ solution. The ABTS radical scavenging was expressed as inhibition percentages (%IABTS) of each complex compared to the control, according to the formula: %IABTS=A0−A/A0×100 where A0 is the absorbance at 730 nm of the control reaction and A is the absorbance at 730 nm in the presence of samples.
IC50 values for the Ru complexes were calculated from the %IABTS using GraphPad Prism 9 software (GraphPad Inc., San Diego, CA, USA). Trolox was employed as the positive control.

[5] = DPPH radical scavenging assay; conditions: 30 min, room temperature, 517 nm
Experimental: Generally, the DPPH radical is able to accept hydrogen radicals or an electron, turning into a stable molecule. The interaction with Ru-NHC complexes induces the reduction of DPPH radical intensity measured at 517 nm, due to the conversion of the purple DPPH radical into its corresponding yellow hydrazine form.
The radical scavenging properties of Ru-NHC complexes on the 1,1-diphenyl-2-picryl-hydrazil (DPPH) radical were evaluated as described by Fazio et al., with minor corrections. Then, 20 μL of each Ru complex, properly dissolved in DMSO, were mixed with methanol DPPH 0.1 mM (180 μL) in a 48-well plate obtaining […] different concentrations (10, 50, 100, 200 and 300 µg/mL). Next, 20 μL of DMSO in 180 μL of DPPH methanol solution was diluted as the control. The mixture was vigorously shaken and incubated (room temperature, 30 min, in the dark). The scavenging activity was measured at 517 nm, using a microplate reader. DPPH radical scavenging was expressed as inhibition percentages (%IDPPH) for the Ru complexes compared to the initial concentration of DPPH (control) according to the formula: %IDPPH=A0−A/A0×100 where A0 is the absorbance at 517 nm of the control reaction and A is the absorbance at 517 nm in the presence of samples.
The obtained IDPPH percentages allowed the IC50 values determination, using GraphPad Prism 9 software (GraphPad Inc., San Diego, CA, USA). Trolox was employed as a positive control.

What does the source list for `N.N.[Cl][Pt][Cl]` [Cisplatin, reference compound]?
IC50 (MDA-MB-231 cells): 32.1 ± 1 µM; IC50 (MCF-7 cells): 26.2 ± 1.1 µM; IC50 (MCF-10A cells): 80.24 ± 0.8 µM; IC50 (SH-SY5Y cells): 18.8 ± 0.9 µM; IC50 (BALB/3T3 cells): 21.6 ± 1.2 µM

Which “strain sensitivity to ampicillin, E. faecalis” value [1] does the source give for `CC1(C)S[C@@H]2[C@H](NC(=O)[C@H](N)c3ccccc3)C(=O)N2[C@H]1C(=O)O` [ampicillin, Ampicillin, reference compound] here?
Its value is “ampicillin-sensible”.

What about the “strain sensitivity to ampicillin, S. aureus” value [2] of the same compound?
The value was “ampicillin-sensible”.

And the “strain sensitivity to ampicillin, E. coli” value [3]?
Its value is “ampicillin-sensible”.

For `Cc1c(C)c2c(c(C)c1O)CCC(C)(C(=O)O)O2` (stereo not shown) [Trolox, reference compound], which IC50 [4] is on record?
Its IC50 is 92.3 ± 0.9 µM.

And the IC50 [5]?
Its IC50 is 99.91 ± 0.9 µM.
